# Earlier results, collected in patent publication US8673347B2 (Creabilis Therapeutics S.p.A., priority 2005, dated 2014).
# Columns and labels:
# MLK3 = MLK3 (Homo sapiens, UniProt Q16584); conditions: cited from earlier work
# TrkA = TrkA (Homo sapiens, UniProt P04629); conditions: cited from earlier work
# Chain of TrkA (P04629 33-796, species assumed): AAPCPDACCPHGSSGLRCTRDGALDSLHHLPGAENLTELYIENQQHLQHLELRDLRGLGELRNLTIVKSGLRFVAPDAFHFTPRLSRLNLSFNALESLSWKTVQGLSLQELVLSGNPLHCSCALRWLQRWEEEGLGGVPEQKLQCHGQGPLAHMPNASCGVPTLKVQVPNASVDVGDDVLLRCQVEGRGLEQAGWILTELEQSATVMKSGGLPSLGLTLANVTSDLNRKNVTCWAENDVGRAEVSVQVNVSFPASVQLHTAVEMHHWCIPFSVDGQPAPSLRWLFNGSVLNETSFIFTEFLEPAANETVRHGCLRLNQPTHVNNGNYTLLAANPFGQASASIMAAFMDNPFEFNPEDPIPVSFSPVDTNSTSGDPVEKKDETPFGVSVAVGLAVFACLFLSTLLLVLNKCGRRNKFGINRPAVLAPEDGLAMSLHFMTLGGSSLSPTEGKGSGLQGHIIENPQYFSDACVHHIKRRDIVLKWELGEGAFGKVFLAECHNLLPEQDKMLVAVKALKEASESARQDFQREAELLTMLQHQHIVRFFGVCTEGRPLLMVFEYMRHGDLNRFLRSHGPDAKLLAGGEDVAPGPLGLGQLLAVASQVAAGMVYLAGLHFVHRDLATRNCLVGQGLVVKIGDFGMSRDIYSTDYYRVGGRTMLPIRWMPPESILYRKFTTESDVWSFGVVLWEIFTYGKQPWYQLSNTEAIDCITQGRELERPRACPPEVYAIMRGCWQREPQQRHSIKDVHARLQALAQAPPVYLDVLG
# Chain of MLK3 (Q16584 whole entry, species assumed): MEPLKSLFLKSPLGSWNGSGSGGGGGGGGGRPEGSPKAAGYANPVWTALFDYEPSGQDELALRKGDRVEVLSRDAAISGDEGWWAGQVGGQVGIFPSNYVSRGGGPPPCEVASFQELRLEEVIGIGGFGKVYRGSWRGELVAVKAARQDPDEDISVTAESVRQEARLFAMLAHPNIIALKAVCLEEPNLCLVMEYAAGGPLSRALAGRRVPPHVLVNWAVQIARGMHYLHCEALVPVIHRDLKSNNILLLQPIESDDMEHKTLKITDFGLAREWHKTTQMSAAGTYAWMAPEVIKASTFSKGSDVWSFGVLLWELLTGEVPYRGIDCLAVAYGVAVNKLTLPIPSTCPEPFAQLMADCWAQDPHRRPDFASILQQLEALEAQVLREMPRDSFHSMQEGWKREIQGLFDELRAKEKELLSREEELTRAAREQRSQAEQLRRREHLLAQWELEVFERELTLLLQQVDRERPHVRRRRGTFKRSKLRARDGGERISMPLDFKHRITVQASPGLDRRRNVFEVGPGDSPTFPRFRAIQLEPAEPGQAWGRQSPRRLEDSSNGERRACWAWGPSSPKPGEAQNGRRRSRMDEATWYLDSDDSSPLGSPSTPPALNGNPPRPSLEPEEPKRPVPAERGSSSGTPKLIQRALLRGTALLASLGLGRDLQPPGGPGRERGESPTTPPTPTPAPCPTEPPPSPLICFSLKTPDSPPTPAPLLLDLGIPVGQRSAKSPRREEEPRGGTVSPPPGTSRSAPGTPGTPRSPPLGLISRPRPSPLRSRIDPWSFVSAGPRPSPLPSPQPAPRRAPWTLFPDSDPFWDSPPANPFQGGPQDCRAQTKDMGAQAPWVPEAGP
smiles,measurement,setting,value
CCSCc1ccc2c(c1)c1c3c(c4c5cc(CSCC)ccc5n5c4c1n2[C@H]1C[C@](O)(C(=O)OC)[C@]5(C)O1)CNC3=O [CEP1347],"inhibition of MAPKKKs, including MLK3",MLK3,directly inhibit
same,TrkA inhibition,TrkA,does not inhibit TrkA
